{"source": "patent US9879308B2", "about": "“Apparatus for ex vivo microfluidic analysis of biologic samples” (The Charles Stark Draper Laboratory, Inc., priority 2012, dated 2018)", "key": {"[1]": {"tested_on": "tumor fragments obtained by FNAB from a patient-derived osteosarcoma xenograft model", "format": "in vitro ADME, human", "protocol": "(§1) FIG. 8 provides an expanded view of an extracted ion chromatogram (XIC) from a potential metabolite highlighted against the background sample. Perfused fluid was collected from the fluidic apparatus as described in the above experiment performed with the FNAB samples (FIGS. 2A-C) to determine whether tumor-mediated drug processing and metabolism can be analyzed. Fluidic samples were prepared by filtration and analyzed by mass spectrometry."}, "[2]": {"tested_on": "FNAB osteosarcoma samples", "assay": "Active caspase ELISA of perfused fluid from fluidic apparatus", "format": "cell-based, human", "details": "data not shown", "protocol": "The fluidic apparatuses were connected to their respective syringe pumps. The FNAB samples were first primed with several passes of culture media. After priming, each FNAB sample was subject to constant laminar flow at 100 μl/hr for 72 hours with their respective treatment. Media was collected every 24 hours and analyzed for caspase 3 and 7 and lactate dehydrogenase (LDH).\nas §1"}, "[3]": {"tested_on": "patient-derived osteosarcoma xenograft", "assay": "Treatment of patient-derived osteosarcoma xenograft mice in vivo (MRI tumor volume, H&E, cleaved-caspase 3)", "set-up": "species or system mouse", "protocol": "(§2) Xenograft mice bearing human osteosarcoma tumor were treated with vehicle, gemcitabine, MK-1775, or a combination of gemcitabine and MK-1775 for 15 days. Treatments were administered on day 1, 3, 8, and 10. FNAB samples were taken before (day 0) and at 6 and 24 hours after treatment. Cell extracts were prepared from the FNAB samples to assess expression levels of CDC2Y15, a target for MK-1775, by Western blot. After day 15, tumors were analyzed by T2-weighted MRIs and paraffin sections of tumors were prepared to assess microscopic features of cell death by H&E-staining and to assess levels of cleaved-caspase 3.\nThe symbol (*) indicates statistical significance (p<0.05)."}, "CDC2Y15": {"tested_on": "CDC2Y15", "assay": "Western blot of CDC2Y15 expression in FNAB cell extracts from treated xenograft mice", "set-up": "species or system mouse", "details": "in vivo treatment; compared to vehicle and gemcitabine treatments; FIG. 7A column (a)", "protocol": "as §2"}, "[4]": {"tested_on": "FNAB osteosarcoma samples", "assay": "Ex vivo treatment of FNAB osteosarcoma samples in microfluidic apparatus, LIVE/DEAD fluorescence staining", "format": "cell-based, human", "text": "Eight micro-scale fluidic apparatuses of the present technology were fabricated from soft photolithography and bonded onto glass coverslip slides. The apparatuses were sterilized by ethylene oxide (EtO) gas. Each fluidic apparatus included a single channel, and the center of the channel contained a series of seven free standing post, collectively called the retaining element, which were used to retain the FNBA osteosarcoma sample (see FIG. 3A). Fluid flows into the channel by an inlet port and out of the channel by an outlet port.\nFNAB osteosarcoma samples were taken from xenograft mouse with patient-derived osteosarcoma using a 25-gauge needle. FNABs were processed and selected for viability by H&E staining procedures before use and individually loaded one into each retaining element and imaged by microscopy and measured for size (all FNABs assayed were ˜300 μm in diameter). […]\nThe fluidic apparatuses were connected to their respective syringe pumps. […] Media was collected every 24 hours and analyzed for caspase 3 and 7 and lactate dehydrogenase (LDH). […]\nThe FNAB samples were fully penetrated by drugs. Tumor cells were stained with HCS LIVE/DEAD® Green Kit (Life Technologies, Carlsband, Calif.) and images were obtained using inverted fluorescence microscope to assess dead (green) and alive (blue) cells."}, "[5]": {"details": "compared to vehicle and gemcitabine treatments, FIG. 7A column (c)"}}, "note": "Like-named read-outs stand apart in the source and are kept apart here.", "data": [{"smiles": "Nc1ccn([C@@H]2O[C@H](CO)[C@@H](O)C2(F)F)c(=O)n1", "note": "[gemcitabine]", "values": [{"measurement": "drug metabolism by tumor fragments (mass spectrometry)", "setting": "[1]", "value": "active metabolism of gemcitabine into its active form, triphosphate"}, {"measurement": "cell death by active caspase ELISA", "setting": "[2]", "value": "not"}]}, {"smiles": "C=CCn1c(=O)c2cnc(Nc3ccc(N4CCN(C)CC4)cc3)nc2n1-c1cccc(C(C)(C)O)n1", "note": "[MK-1775]", "values": [{"measurement": "apoptosis of the cancer cells, in vivo model", "setting": "[3]; 15 days of treatment", "value": "able to induce apoptosis"}, {"measurement": "DNA staining of tumor sections", "setting": "[3]; [5]", "value": "decreased DNA staining"}, {"measurement": "immunoreactivity to caspase 3", "setting": "[3]; [5]", "value": "high immunoreactivity to caspase 3"}, {"measurement": "tumor volume at day 15", "setting": "[3]; day 15, compared to vehicle and gemcitabine treatments, FIG. 7A column (b)", "value": "reduced tumor volume"}, {"measurement": "cell death in vivo", "setting": "[3]; patient-derived osteosarcoma xenograft mouse model, FIG. 7A", "value": "lead to cell death"}, {"measurement": "expression levels of CDC2Y15", "setting": "CDC2Y15", "value": "reduces expression levels of CDC2Y15"}, {"measurement": "cell death in tumor fragments ex vivo", "setting": "[4]; 1 μM MK-1775, 3 μM gemcitabine, 100 μl/hr for 72 hours, LIVE/DEAD stain, FIG. 7C", "value": "lead to cell death"}, {"measurement": "apoptosis of the cancer cells, ex vivo model", "setting": "[4]; 72 hour period", "value": "able to induce apoptosis"}, {"measurement": "drug metabolism by tumor fragments (mass spectrometry)", "setting": "[1]; human", "value": "metabolism of MK-1775 into its metabolized forms"}, {"measurement": "cell death by active caspase ELISA", "setting": "[2]", "value": "increased cell death"}]}]}
